What was measured:
[1] = Cytotoxicity on NHDF cells in the anti-HCMV cytopathogenicity test; type: cell-based; conditions: human, NHDF cells (normal human dermal fibroblasts), 6 days incubation, visual evaluation
Protocol: (§1) The test compounds are used as 50 millimolar (mM) solutions in dimethyl sulfoxide (DMSO). The reference compounds used are ganciclovir, foscarnet and cidofovir. In each case 2 μl of the 50, 5, 0.5 and 0.05 mM DMSO stock solutions are added to in each case 98 μl of cell culture medium in row […] in duplicate, and 1:2 dilutions with in each case 50 μl of medium are then made up to row 11 of the 96-well plate. The wells in rows 1 and 12 each contain 50 μl of medium. In each case 150 μl of a suspension of 1×10^4 cells (NHDF=normal human dermal fibroblasts) (row 1 =cell control) and, for rows 2-12, a mixture of HCMV-infected and non-infected NHDF cells (M.O.I.=0.001-0.002), i.e. 1-2 infected cells per 1000 non-infected cells, are then pipetted into the wells. Row 12 (without substance) serves as virus control. The final test concentrations are 250-0.0005 μM. The plates are incubated at 37° C./5% CO2 for 6 days, i.e. until all cells in the virus controls are infected (100% cytopathogenic effect [CPE]). The wells are then fixed by adding a mixture of formalin and Giemsa's dye and stained (30 minutes), washed with doubly distilled water and dried in a drying cabinet at 50° C. The plates are then examined visually using an overhead microscope (Plaque multiplier from Technomara). Using the test plates, the following data can be determined: • CC50 (NHDF)=substance concentration in μM where, compared to the untreated cell control, no cytostatic effects on the cells are evident; • EC50 (HCMV)=substance concentration in μM where the CPE (cytopathic effect) is inhibited by 50% compared to the untreated virus control; • SI (selectivity index)=CC50 (NHDF)/EC50 (HCMV). In vivo Action: HCMV Xenograft Gelfoam® Model: Animals: […]

[2] = system: Human cytomegalovirus (HCMV), DavisSmith strain; test: HCMV xenograft Gelfoam model; type: in vivo, immunodeficient mice; conditions: perorally three times a day for 8 days, SCID mice, HCMV-infected NHDF cells in Gelfoam sponge
Excerpt: Female immunodeficient mice (16-18 g), Fox Chase SCID or Fox Chase SCID-NOD or SCID-beige, 3-4 weeks old, are obtained from commercial breeders (Bomholtgaard, Jackson). The animals are kept under sterile conditions (including litter and feed) in isolation units.
Human cytomegalovirus (HCMV), DavisSmith strain, is cultivated in vitro on embryonal human dermal fibroblasts (NHDF cells). Following infection of the NHDF cells with a multiplicity of infection (M.O.I.) of 0.01, the virus-infected cells are harvested after 5-7 days and, in the presence of minimal essential medium (MEM), 10% fetal calf serum (FCS) with 10% DMSO, stored at −40° C. Following serial dilution of the virus-infected cells in steps of ten, the titer is determined on 24-well plates of confluent NHDF cells after vital stain with Neutral Red.
Collagen sponges (Gelfoam®; from Peasel & Lorey, order No. 40734; K. T. Chong et al., Abstracts of 39th Interscience Conference on Antimicrobial Agents and Chemotherapy, 1999, p. 439) of a size of 1×1×1 cm are initially wetted with phosphate-buffered saline (PBS), the enclosed air bubbles are removed by degassing and the sponges are then stored in MEM+10% FCS. […] What is determined is the number of infectious virus particles after substance treatment compared to the placebo-treated control group.

[3] = system: human cytomegalovirus (HCMV); test: Anti-HCMV (anti-human cytomegalovirus) cytopathogenicity test; type: cell-based; conditions: for EC50: Human betaherpesvirus 5, 144 h, HCMV-infected NHDF cells, M.O.I. 0.001-0.002, 6 days, 50% inhibition of CPE; for SI HCMV: selectivity index = CC50 (NHDF)/EC50 (HCMV)
Protocol: as §1

| melting point | EC50 [3] | Compound | CC50 at 6 days [1] | Murine xenograft model ED50 t.i.d. [2] | SI HCMV [3] |
| --- | --- | --- | --- | --- | --- |
| 213 °C | 0.96 µM | CC1(C)CC(=O)NN=C1c1cccc(NC(=O)Nc2ccc(F)cc2F)c1 [Example 1, N-(2,4-Difluorophenyl)-N′-[3-(4,4-dimethyl-6-oxo-1,4,5,6-tetrahydro-3-pyridazinyl)-phenyl]urea] | 125 µM | 18 mg]kg | 130 |
| – | 0.07 µM | CC1(C)CC(=O)NN=C1c1cccc(NC(=O)Nc2ccc(F)c(Cl)c2)c1 [Example 2, N-(3-Chloro-4-fluorophenyl)-N′-[3-(4,4-dimethyl-6-oxo-1,4,5,6-tetrahydro-3-pyridazinyl)phenyl]urea] | 23 µM | – | 329 |
| 200 °C | – | CC1(C)CC(c2cccc(NC(=O)Nc3ccc(F)c(F)c3)c2)=NNC1=O [Example 6, N-(3,4-Difluorophenyl)-N′-[3-(5,5-dimethyl-6-oxo-1,4,5,6-tetrahydro-3-pyridazinyl)-phenyl]urea] | – | – | – |

The remaining lines, values behind:

| Compound | melting point | EC50 [3] | CC50 at 6 days [1] | Murine xenograft model ED50 t.i.d. [2] | SI HCMV [3] |
| --- | --- | --- | --- | --- | --- |
| CC1(C)CC(=O)NN=C1c1cccc(NC(=O)Nc2cccc(Br)c2)c1 [Example 3, N-(3-Bromophenyl)-N′-[3-(4,4-dimethyl-6-oxo-1,4,5,6-tetrahydro-3-pyridazinyl)-phenyl]urea] | 207 °C | 0.13 µM | 24 µM | – | 185 |
| Cc1cc(Cl)ccc1NC(=O)Nc1cccc(C2=NNC(=O)CC2(C)C)c1 [Example 4, N-(4-Chloro-2-methylphenyl)-N′-[3-(4,4-dimethyl-6-oxo-1,4,5,6-tetrahydro-3-pyridazinyl)phenyl]urea] | 232 °C | 0.15 µM | > 23 µM | 8 mg]kg | >153 |
| CC1(C)CC(c2ccccc2NC(=O)Nc2ccc(F)cc2F)=NNC1=O [Example 5, N-(2,4-Difluorophenyl)-N′-[2-(5,5-dimethyl-6-oxo-1,4,5,6-tetrahydro-3-pyridazinyl)-phenyl]urea] | – | 6.1 µM | 125 µM | – | 21 |
